This passage reports Kd results from article PMC11227560, “Tyrosol blocks E. coli anaerobic biofilm formation via YbfA and FNR to increase antibiotic susceptibility” (Nature Communications, 2024).

Molecules are shown by their SMILES.

This assay has as its target T1, YbfA (Escherichia coli, UniProt P0AAU2).
T1 construct: recombinant 6xHis-tagged YbfA (pET28a), ybfA gene cloned from E. coli W3110
The experiment in a line: isothermal titration calorimetry (ITC), […] °C. It counts as binding.

T1 sequence (P0AAU2 22-68): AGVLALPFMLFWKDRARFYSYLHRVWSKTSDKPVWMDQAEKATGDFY

As for `OCCc1ccc(O)cc1` [tyrosol], the Kd was determined as 4.65 ± 0.11 µM.
